Series [1] addresses IL-17RA/IL17RC dimerization induced by IL-17A (Homo sapiens, UniProt Q16552). The series can be described thus: IL-17RA/IL17RC dimerization assay in response to IL-17A (PathHunter Cytokine Receptor Assay). It counts as cell-based. To be noted: IL-17A at EC80; read-out: IC50 in IL-17RA/IL7RC dimerization assay. The gist of the method: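 Receptor dimerization was read as chemiluminescence from complemented β-galactosidase after IL-17A at EC80 concentration for 6–16 h at 37 °C. Peptides were added 60 min before agonist, at 37 °C or room temperature, with 1% vehicle. Percent inhibition used the EC80-stimulated and vehicle wells as references.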

Series [2] in a line: Isoelectric point, log D and log P (SiriusT3). It counts as physicochemical. To be noted: for IP (isoelectric point): 25±1° C., 0.15 M KCl; for logD: pH 7.4, pH 7.4, octanol/ISA water, read-out: Log D (7.4).
Series [3] is classed as physicochemical. To be noted: pH 7.8. The gist of the method:
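Peptides dissolved in phosphate buffer pH 7.8 as 10 mM stocks (more dilute for less soluble ones) and stored at 25 °C. Content measured by reversed-phase UHPLC (C18, 0.5% formic acid water/acetonitrile gradient, DAD 220-400 nm, ESI-MS ion trap) after 1:100 dilution to 100 μM, against 100 μM standards, at T0, 3 days and 1 week.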

Where [4] appears, read: octanol/ISA water, read-out: logP.

Like-named read-outs stand apart in the source and are kept apart here. Residues, ends and D or L forms follow the SMILES beside them.

A word on the logP: it is a log measure of how a compound divides between an organic and an aqueous phase. By solubility is commonly meant the dissolved amount per volume that the medium holds.

Sequence of IL-17RA/IL17RC dimerization induced by IL-17A (Q16552 24-155): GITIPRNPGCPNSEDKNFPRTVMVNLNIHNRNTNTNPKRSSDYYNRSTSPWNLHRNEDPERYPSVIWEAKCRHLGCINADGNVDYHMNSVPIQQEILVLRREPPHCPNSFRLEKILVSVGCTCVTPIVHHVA

As for `CC[C@H](C)[C@H](NC(=O)[C@H](Cc1c[nH]c2ccccc12)NC(=O)[C@H](CCC(=O)O)NC(=O)[C@H](Cc1ccc(O)cc1)NC(=O)[C@H](CC(C)C)NC(=O)[C@H](CC(=O)O)NC(=O)[C@H](C)NC(=O)[C@@H]1CCCN1C(=O)[C@@H](NC(=O)[C@@H](NC(=O)[C@@H](NC(=O)[C@H](CCSC)NC(=O)[C@@H](NC(C)=O)C(C)C)C(C)C)[C@@H](C)O)[C@@H](C)CC)C(=O)N[C@@H](CCC(=O)O)C(=O)N[C@@H](CCC(=O)O)C(=O)N[C@H](C(=O)N1CCC[C@H]1C(=O)NCC(=O)N[C@@H](Cc1c[nH]c2ccccc12)C(=O)NCC(N)=O)C(C)C` [SEQ ID NO: 24] (Ac-VMVTIPADLYEWIEEVPGWG-NH2), the IC50 in series [1] was under 1 µM. Also, in series [2], the “IP (isoelectric point)” value is reported as 5.14 and the logD is 2.15. Also, the logP in series [2] (setting [4]) came out at 2.45. In series [3], the solubility was under 50 µM.

Consider `CC[C@H](C)[C@H](NC(=O)[C@H](Cc1c[nH]c2ccccc12)NC(=O)[C@H](CCC(=O)O)NC(=O)[C@H](Cc1ccc(O)cc1)NC(=O)[C@H](CC(C)C)NC(=O)[C@H](CC(=O)O)NC(=O)[C@H](C)NC(=O)[C@@H]1CCCN1C(=O)[C@@H](NC(=O)[C@@H](NC(=O)[C@@H](NC(=O)[C@H](CCSC)NC(=O)[C@@H](NC(C)=O)C(C)C)C(C)C)[C@@H](C)O)[C@@H](C)CC)C(=O)N[C@@H](CCC(=O)O)C(=O)N[C@@H](CCC(=O)O)C(=O)NCC(=O)NCC(=O)N[C@@H](CCCCN)C(=O)N[C@@H](CCC(=O)O)C(=O)N[C@H](C(=O)N[C@@H](Cc1c[nH]c2ccccc12)C(=O)N[C@@H](Cc1c[nH]c2ccccc12)C(=O)N[C@@H](CCC(=O)O)C(=O)N[C@H](C(=O)N[C@@H](Cc1c[nH]c2ccccc12)C(N)=O)[C@@H](C)O)[C@@H](C)O` [SEQ ID NO: 25] (Ac-VMVTIPADLYEWIEEGGKETWWETW-NH2), for which, in series [1], the IC50 is under 1 µM. In series [2], the “IP (isoelectric point)” value came to 4.66 and the logD is -5.64. Moreover, the logP in series [2] (setting [4]) is 0.4. In series [3], this compound registered a solubility of at least 100 µM.

Take `CC[C@H](C)[C@H](NC(=O)[C@H](Cc1c[nH]c2ccccc12)NC(=O)[C@H](CCC(=O)O)NC(=O)[C@H](Cc1ccc(O)cc1)NC(=O)[C@H](CC(C)C)NC(=O)[C@H](CC(=O)O)NC(=O)[C@H](C)NC(=O)[C@@H]1CCCN1C(=O)[C@@H](NC(=O)[C@@H](NC(=O)[C@@H](NC(=O)[C@H](CCSC)NC(=O)[C@@H](NC(C)=O)C(C)C)C(C)C)[C@@H](C)O)[C@@H](C)CC)C(=O)N[C@@H](CCC(=O)O)C(=O)N[C@@H](CCC(=O)O)C(=O)N[C@H](C(=O)N1CCC[C@H]1C(=O)NCC(=O)N[C@@H](CCCCN)C(=O)NCC(N)=O)C(C)C` [SEQ ID NO: 26] (Ac-VMVTIPADLYEWIEEVPGKG-NH2): the IC50 in series [1] is under 1 µM. In addition, in series [2], the “IP (isoelectric point)” value came to 8.13 and the logD stood at 0.148. Moreover, the logP in series [2] (setting [4]) amounted to 0.69. The compound further returned a solubility in series [3] of over 10000 µM.

`CC[C@H](C)[C@H](NC(=O)[C@H](Cc1c[nH]c2ccccc12)NC(=O)[C@H](CCC(=O)O)NC(=O)[C@H](Cc1ccc(O)cc1)NC(=O)[C@H](CC(C)C)NC(=O)[C@H](CC(=O)O)NC(=O)[C@H](C)NC(=O)[C@@H]1CCCN1C(=O)[C@@H](NC(=O)[C@@H](NC(=O)[C@@H](NC(=O)[C@H](CCSC)NC(=O)[C@@H](NC(C)=O)C(C)C)C(C)C)[C@@H](C)O)[C@@H](C)CC)C(=O)N[C@@H](CCC(=O)O)C(=O)N[C@@H](CCC(=O)O)C(=O)N[C@H](C(=O)N1CCC[C@H]1C(=O)NCC(=O)N[C@@H](C)C(=O)NCC(N)=O)C(C)C` [SEQ ID NO: 27] (Ac-VMVTIPADLYEWIEEVPGAG-NH2): the IC50 in series [1] is under 1 µM. Besides, in series [2], the “IP (isoelectric point)” value is listed as 5.14 and the logD was found to be 0.148. For the same compound, the logP in series [2] (setting [4]) is 0.69. For the same compound, the solubility in series [3] was over 10000 µM.

Turning to `CC[C@H](C)[C@H](NC(=O)[C@H](Cc1c[nH]c2ccccc12)NC(=O)[C@H](CCC(=O)O)NC(=O)[C@H](Cc1ccc(O)cc1)NC(=O)[C@H](CC(C)C)NC(=O)[C@H](CC(=O)O)NC(=O)[C@H](C)NC(=O)[C@@H]1CCCN1C(=O)[C@@H](NC(=O)[C@@H](NC(=O)[C@@H](NC(=O)[C@H](CCSC)NC(=O)[C@@H](NC(C)=O)C(C)C)C(C)C)[C@@H](C)O)[C@@H](C)CC)C(=O)N[C@@H](CCC(=O)O)C(=O)N[C@@H](CCC(=O)O)C(=O)N[C@@H](CCCNC(=N)N)C(=O)N[C@@H](CCC(N)=O)C(=O)N[C@H](C(=O)N[C@@H](CCCCN)C(=O)N[C@H](C(=O)N[C@@H](Cc1c[nH]c2ccccc12)C(=O)N[C@@H](Cc1ccccc1)C(=O)N[C@@H](CCC(N)=O)C(=O)N[C@@H](CC(N)=O)C(=O)N[C@@H](CCCNC(=N)N)C(=O)N[C@@H](CCCNC(=N)N)C(=O)N[C@@H](CCSC)C(=O)N[C@@H](CCCCN)C(=O)N[C@@H](Cc1c[nH]c2ccccc12)C(=O)N[C@@H](CCCCN)C(=O)N[C@@H](CCCCN)C(N)=O)[C@@H](C)CC)[C@@H](C)CC` [SEQ ID NO: 28] (Ac-VMVTIPADLYEWIEERQIKIWFQNRRMKWKK-NH2), in series [1], the IC50 is under 1 µM. Also, in series [2], the lipophilicity (logP) was −6.36 and the “IP (isoelectric point)” value worked out at 12.25. In series [2] (pH 7.4), the “Log D (7.4)” value is listed as −6.44. Besides, the solubility in series [3] was at least 100 µM.

For `CC[C@H](C)[C@H](NC(=O)[C@H](Cc1c[nH]c2ccccc12)NC(=O)[C@H](CCC(=O)O)NC(=O)[C@H](Cc1ccc(O)cc1)NC(=O)[C@H](CC(C)C)NC(=O)[C@H](CC(=O)O)NC(=O)[C@H](C)NC(=O)[C@@H]1CCCN1C(=O)[C@@H](NC(=O)[C@@H](NC(=O)[C@@H](NC(=O)[C@H](CCSC)NC(=O)[C@@H](NC(=O)[C@H](CCCNC(=N)N)NC(=O)[C@H](CCCNC(=N)N)NC(=O)[C@H](CCCNC(=N)N)NC(=O)[C@H](CCCNC(=N)N)NC(=O)[C@H](CCCNC(=N)N)NC(=O)[C@H](CCCNC(=N)N)NC(=O)[C@H](CCCNC(=N)N)NC(=O)[C@H](CCCNC(=N)N)NC(C)=O)C(C)C)C(C)C)[C@@H](C)O)[C@@H](C)CC)C(=O)N[C@@H](CCC(=O)O)C(=O)N[C@@H](CCC(=O)O)C(N)=O` [SEQ ID NO: 29] (Ac-RRRRRRRRVMVTIPADLYEWIEE-NH2), the IC50 in series [1] was under 1 µM. For the same compound, in series [2], the “IP (isoelectric point)” value was determined as 12.25. In series [3], this compound yielded a solubility of over 10000 µM.

Regarding `CC[C@H](C)[C@H](NC(=O)[C@H](Cc1c[nH]c2ccccc12)NC(=O)[C@H](CCC(=O)O)NC(=O)[C@H](Cc1ccc(O)cc1)NC(=O)[C@H](CC(C)C)NC(=O)[C@H](CC(=O)O)NC(=O)[C@H](C)NC(=O)[C@@H]1CCCN1C(=O)[C@@H](NC(=O)[C@@H](NC(=O)[C@@H](NC(=O)[C@H](CCSC)NC(=O)[C@@H](NC(C)=O)C(C)C)C(C)C)[C@@H](C)O)[C@@H](C)CC)C(=O)N[C@@H](CCC(=O)O)C(=O)N[C@@H](CCC(=O)O)C(=O)N[C@@H](CCCNC(=N)N)C(=O)N[C@@H](CCCNC(=N)N)C(=O)N[C@@H](CCCNC(=N)N)C(=O)N[C@@H](CCCNC(=N)N)C(=O)N[C@@H](CCCNC(=N)N)C(=O)N[C@@H](CCCNC(=N)N)C(=O)N[C@@H](CCCNC(=N)N)C(=O)N[C@@H](CCCNC(=N)N)C(N)=O` [SEQ ID NO: 30] (Ac-VMVTIPADLYEWIEERRRRRRRR-NH2), the IC50 in series [1] is under 1 µM. Moreover, in series [2], the “IP (isoelectric point)” value came to 12.96 and the logD is -3.89. This compound showed a solubility in series [3] of at least 100 µM.

For `CC[C@H](C)[C@H](NC(=O)[C@H](Cc1c[nH]c2ccccc12)NC(=O)[C@H](CCC(=O)O)NC(=O)[C@H](Cc1ccc(O)cc1)NC(=O)[C@H](CC(C)C)NC(=O)[C@H](CC(=O)O)NC(=O)[C@H](C)NC(=O)[C@@H]1CCCN1C(=O)[C@@H](NC(=O)[C@@H](NC(=O)[C@@H](NC(=O)[C@H](CCSC)NC(=O)[C@@H](NC(=O)[C@H](C)NC(=O)[C@H](CCCCN)NC(=O)[C@H](C)NC(=O)[C@H](C)NC(=O)[C@H](CCCCN)NC(=O)[C@H](CCCCN)NC(=O)[C@H](CCCNC(=N)N)NC(=O)[C@H](C)NC(C)=O)C(C)C)C(C)C)[C@@H](C)O)[C@@H](C)CC)C(=O)N[C@@H](CCC(=O)O)C(=O)N[C@@H](CCC(=O)O)C(N)=O` [SEQ ID NO: 31] (Ac-ARKKAAKAVMVTIPADLYEWIEE-NH2), in series [1], the IC50 is under 1 µM. Besides, in series [2], the “IP (isoelectric point)” value is recorded as 12.5 and the logD is -3.59. In addition, in series [2] (setting [4]), the lipophilicity (logP) was -4.9. In series [3], this compound yielded a solubility of over 10000 µM.

For the compound `CC[C@H](C)[C@H](NC(=O)[C@H](Cc1c[nH]c2ccccc12)NC(=O)[C@H](CCC(=O)O)NC(=O)[C@H](Cc1ccc(O)cc1)NC(=O)[C@H](CC(C)C)NC(=O)[C@H](CC(=O)O)NC(=O)[C@H](C)NC(=O)[C@@H]1CCCN1C(=O)[C@@H](NC(=O)[C@@H](NC(=O)[C@@H](NC(=O)[C@H](CCSC)NC(=O)[C@@H](NC(=O)[C@H](CCC(N)=O)NC(=O)[C@H](CO)NC(=O)[C@H](Cc1c[nH]c2ccccc12)NC(=O)[C@H](CCC(=O)O)NC(=O)[C@@H](NC(=O)[C@H](Cc1c[nH]c2ccccc12)NC(=O)[C@H](Cc1c[nH]c2ccccc12)NC(=O)[C@@H](NC(=O)CNC(=O)CNC(C)=O)[C@@H](C)O)[C@@H](C)O)C(C)C)C(C)C)[C@@H](C)O)[C@@H](C)CC)C(=O)N[C@@H](CCC(=O)O)C(=O)N[C@@H](CCC(=O)O)C(N)=O` [SEQ ID NO: 32] (Ac-GGTWWTEWSQVMVTIPADLYEWIEE-NH2), the IC50 in series [1] is under 1 µM. Besides, the logD in series [2] was -3.59. In series [3], this compound registered a solubility of under 50 µM.
